Literature values, collected in US9901577B2, “Oxoquinazolinyl-butanamide derivatives” (MERCK PATENT GMBH, priority 2013, dated 2018).

Assays:
DLD-1-cancer cells = conditions: Huang et al., 2009; cited from earlier work
β-catenin = conditions: by increasing the levels of AXIN1 and AXIN2 proteins; cited from earlier work

Compound: Oc1nc(-c2ccc(C(F)(F)F)cc2)nc2c1CSCC2 [XAV939]
- growth of DLD-1-cancer cells (DLD-1-cancer cells): inhibits growth
- Wnt-stimulated accumulation of β-catenin (β-catenin): blocked Wnt-stimulated accumulation of β-catenin
